Measurements reported in patent publication US20200030305A1, “LOCAL ANESTHETIC-CONTAINING ACIDIC EMULSION COMPOSITION” (Maruishi Pharmaceutical Co., Ltd., priority 2017, published 2020).
Counter-ions that a name gives are not always drawn.

Assay: Oil-water partition ratio
Type: physicochemical
Conditions: 0.05% by mass aqueous solution vs oil phase soybean oil:MCT 1:1, 25° C.
Protocol: 5 g of an oil phase (soybean oil:medium-chain fatty acid triglyceride=1:1) was added to 5 g of a 0.05% by mass aqueous levobupivacaine hydrochloride solution, and the mixture was stirred with a vortex mixer for 1 minute. After that, the whole was transferred to a centrifugation tube and centrifuged at 3600 rpm at 25° C. for 10 minutes, and the aqueous phase was separated. The levobupivacaine concentration of the aqueous phase was measured by HPLC, and the oil-water partition ratio was determined.

Compound: CCCCN1CCCC[C@H]1C(=O)Nc1c(C)cccc1C [levobupivacaine hydrochloride, (2S)-1-butyl-N-(2,6-dimethylphenyl)piperidine-2-carboxamide]
- proportion present in the aqueous phase (oil-water partition ratio): 94.3%
